Experimental data from patent US12403128B2, “Compositions and methods for blocking sodium channels” (University of Virginia Patent Foundation, priority 2017, dated 2025).
Read-outs that look alike come from different tables or passages of the source.

Columns and labels:
Nav1.6 = Nav1.6 (Homo sapiens, UniProt Q9UQD0); assay: % block of Nav1.6 at 100 μM and IC50 (NaV1.6); format: cell-based
Procedure, shortened: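 Nav1.6 block recorded as percent inhibition at 100 μM compound; IC50 also reported.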

NaV1.6 sodium channels = NaV1.6 sodium channels (Homo sapiens, UniProt Q9UQD0); assay: State-dependent inhibition: steady state inactivation, use-dependent block; format: cell-based
Sequence of NaV1.6 sodium channels (Q9UQD0 whole entry): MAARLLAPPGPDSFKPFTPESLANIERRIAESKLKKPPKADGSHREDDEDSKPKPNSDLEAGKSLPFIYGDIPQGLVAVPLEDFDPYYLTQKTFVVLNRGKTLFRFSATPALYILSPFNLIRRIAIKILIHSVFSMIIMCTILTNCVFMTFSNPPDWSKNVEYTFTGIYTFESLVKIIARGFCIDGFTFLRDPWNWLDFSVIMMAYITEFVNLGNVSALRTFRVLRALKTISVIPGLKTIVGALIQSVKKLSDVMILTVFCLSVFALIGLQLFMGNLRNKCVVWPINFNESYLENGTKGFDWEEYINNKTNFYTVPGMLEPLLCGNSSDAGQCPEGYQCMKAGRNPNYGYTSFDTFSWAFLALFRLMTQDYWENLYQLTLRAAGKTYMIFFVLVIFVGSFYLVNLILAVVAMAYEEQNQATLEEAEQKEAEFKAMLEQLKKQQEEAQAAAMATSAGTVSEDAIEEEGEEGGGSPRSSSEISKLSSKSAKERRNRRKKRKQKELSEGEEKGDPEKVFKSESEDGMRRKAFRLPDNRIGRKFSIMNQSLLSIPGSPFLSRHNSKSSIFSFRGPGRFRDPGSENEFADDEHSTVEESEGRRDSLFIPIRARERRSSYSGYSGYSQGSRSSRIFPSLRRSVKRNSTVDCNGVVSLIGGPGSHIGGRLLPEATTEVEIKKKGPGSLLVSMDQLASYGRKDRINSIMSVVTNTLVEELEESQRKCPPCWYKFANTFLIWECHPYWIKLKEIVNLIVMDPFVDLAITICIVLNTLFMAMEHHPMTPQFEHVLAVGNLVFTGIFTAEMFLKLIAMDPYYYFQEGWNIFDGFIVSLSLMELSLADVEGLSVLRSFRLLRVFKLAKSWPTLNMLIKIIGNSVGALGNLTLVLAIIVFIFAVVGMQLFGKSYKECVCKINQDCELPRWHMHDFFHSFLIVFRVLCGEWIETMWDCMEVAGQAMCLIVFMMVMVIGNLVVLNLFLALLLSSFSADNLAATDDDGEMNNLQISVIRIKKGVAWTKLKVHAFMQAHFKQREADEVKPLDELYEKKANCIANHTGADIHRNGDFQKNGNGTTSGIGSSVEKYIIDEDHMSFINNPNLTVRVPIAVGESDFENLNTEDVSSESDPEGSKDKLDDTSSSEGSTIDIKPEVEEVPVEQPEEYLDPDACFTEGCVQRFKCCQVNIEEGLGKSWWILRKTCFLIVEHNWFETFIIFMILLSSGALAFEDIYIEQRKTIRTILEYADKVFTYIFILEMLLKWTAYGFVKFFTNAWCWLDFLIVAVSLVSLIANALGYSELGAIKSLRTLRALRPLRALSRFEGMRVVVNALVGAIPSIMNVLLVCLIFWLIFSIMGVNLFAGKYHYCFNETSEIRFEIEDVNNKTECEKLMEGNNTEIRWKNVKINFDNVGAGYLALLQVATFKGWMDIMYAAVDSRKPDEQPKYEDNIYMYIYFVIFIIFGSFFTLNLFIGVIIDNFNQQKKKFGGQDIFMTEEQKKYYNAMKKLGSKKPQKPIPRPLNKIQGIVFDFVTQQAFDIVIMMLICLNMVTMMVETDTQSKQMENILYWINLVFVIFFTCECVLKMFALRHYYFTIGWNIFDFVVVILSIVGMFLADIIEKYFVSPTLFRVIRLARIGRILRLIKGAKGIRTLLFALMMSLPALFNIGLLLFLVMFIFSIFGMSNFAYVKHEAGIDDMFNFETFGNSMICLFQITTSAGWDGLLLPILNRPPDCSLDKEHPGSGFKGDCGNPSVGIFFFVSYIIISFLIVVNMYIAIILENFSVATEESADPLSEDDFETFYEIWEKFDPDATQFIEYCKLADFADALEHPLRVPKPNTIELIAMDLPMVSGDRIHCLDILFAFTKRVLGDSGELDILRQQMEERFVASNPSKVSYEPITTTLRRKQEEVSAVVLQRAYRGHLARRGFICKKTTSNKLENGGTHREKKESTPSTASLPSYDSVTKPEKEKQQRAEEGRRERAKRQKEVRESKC
Text: Evaluation of Compounds as State-Dependent Inhibitors
Use dependent block is an important characteristic for AED activity since it allows increased inhibition of sodium channels during increased neuronal activity as is observed during seizures.

[1] = test system: maximal electroshock (MES) seizures; assay: MES (maximal electroshock) test, mice; format: in vivo; conditions: for MES N/F (animals active over number tested): 100 mg/kg
Text: Evaluation of Compounds in MES Models of Seizures. […] These seizures are highly reproducible and are electrophysiologically consistent with human seizures. […] Abolition of the hindleg tonic extensor component of the seizure was used as the endpoint.

[2] = test system: maximal electroshock (MES) seizures; assay: MES (maximal electroshock) test, rats; format: in vivo; conditions: for MES N/F (animals active over number tested): 30 mg/kg
Text: Evaluation of Compounds in MES Models of Seizures. The MES is a model for generalized tonic-clonic seizures and provides an indication of a compound's ability to prevent seizure spread when all neuronal circuits in the brain are maximally active. These seizures are highly reproducible and are electrophysiologically consistent with human seizures. […] Abolition of the hindleg tonic extensor component of the seizure was used as the endpoint.

[3] = test system: Metrazol-induced clonic seizures; assay: scM (subcutaneous Metrazol) test, mice; format: in vivo
Method: (§1) Evaluation of Compounds in scM Models of Seizures. Subcutaneous injection of the convulsant Metrazol produces clonic seizures in laboratory animals. […] Animals may be pretreated with various doses of the test compound given by ip injection. At a previously determined TPE (time to peak) of the test compound, the dose of Metrazol which will induce convulsions in 97% of animals (CD97:85 mg/kg mice) may be injected into a loose fold of skin in the midline of the neck. The animals may be placed in isolation cages to minimize stress and observed for the next 30 min for the presence or absence of a seizure. An episode of clonic spasms, approximately 3-5 seconds, of the fore and/or hindlimbs, jaws, or vibrissae may be taken as the endpoint. […] The scM test represents acute animal seizures.

[4] = test system: Metrazol-induced clonic seizures; assay: scM (subcutaneous Metrazol) test, rats; format: in vivo
Method: as §1

[5] = test system: 6 Hz psychomotor seizures; assay: 6 Hz psychomotor seizure test, mice; format: in vivo; conditions: for 6 Hz N/F (animals active over number tested): 100 mg/kg; for ED50: Mus musculus
Method: Evaluation of Compounds in 6 Hz Pyschomotor Seizure Test
Compounds were tested using a 6 Hz psychomotor seizure test. […] For example, both the MES and scM models are insensitive to levetiracetam, a compound considered potentially useful in the management of refractory seizures. […] Thus, the 6 Hz test can serve as a therapy resistant screening paradigm of acute seizure activity.

[6] = test system: corneal kindled mice seizures; assay: Corneal kindled mice model; format: in vivo; conditions: for Avg. Score / N/F (animals active over number tested): TPE 0.5 hours
Method: Evaluation of Compounds in Corneal Kindled Mice Model.
Corneal kindled mice are kindled electrically via 3 second stimulation at 8 mA, 60 Hz through corneal electrodes to produce 10 consecutive stage […] seizures according to the Racine scale. Animals are defined as kindled once they progress to a reproducible stage 5 seizure. 72 hours after the mice have been kindled the test substance is administered and, according to a previously determined TPE (time to peak), the animals are electrically stimulated. The animals are considered protected when displaying a stage 3, or lower, seizure.

[7] = Behavioral toxicity (TOX, TD50), rats; format: in vivo; conditions: rat, in vivo, IP, Table 15, read-out: TOX TD50
rats = assay: Behavioral toxicity (TOX, TD50), rats; format: in vivo; conditions: IP, 30 mg/kg
mice = conditions: mouse, in vivo, ip, 100 mg/kg
in vivo = conditions: mouse, ip

Sequence of Nav1.6 (Q9UQD0 whole entry): as above

In the case of Clc1ccc2nc(-c3ccccc3)[nH]c2c1 [MV1066, 6-chloro-2-phenyl-1H-1,3-benzodiazole], the inhibition at 100 µM (Nav1.6; 100 μM compound) is reported as 95%, the IC50 (Nav1.6; NaV1.6, Table 2, MV1060-MV1091, unit inferred, read-out: IC50) is reported as 34.6 µM and the “effect on current amplitude and activation gating” value (NaV1.6 sodium channels; 100 μM, 1 second pre-pulse) is reported as “inhibits macroscopic current amplitude but has no effect on activation gating”. The use-dependent block (NaV1.6 sodium channels; 20 Hz) was “profound use-dependent block”, the “affinity by holding potential (dose response)” value (NaV1.6 sodium channels; cells held at −100 mV or −60 mV, stepped to +10 mV) was “greater affinity for cells held at −60 mV” and the ED50 ([1]; Mouse, time 0.5 hrs, read-out: ED50 from MES test) was 44.2 mg/kg. For the same compound, the ED50 ([1]; Mus musculus, mice, IP, Table 14, read-out: MES ED50) was 44.2 mg/kg, the “MES N/F (animals active over number tested)” value ([1]; mice, IP, 0.25 h) was 4/4 and the “MES N/F (animals active over number tested)” value ([1]; mice, IP, 0.5 h) was 4/4. For the same compound, the “MES N/F (animals active over number tested)” value ([1]; mice, IP, 1.0 h) was 4/4, the “MES N/F (animals active over number tested)” value ([1]; mice, IP, 2.0 h) was 4/4 and the “MES N/F (animals active over number tested)” value ([1]; mice, IP, 4.0 h) was 4/4. For the same compound, the ED50 ([2]; Rat, time 0.5 hrs, read-out: ED50 from MES test) was 25.1 mg/kg, the ED50 ([2]; Rattus norvegicus, rats, IP, Table 15, read-out: MES ED50) was 25.1 mg/kg and the “MES N/F (animals active over number tested)” value ([2]; rats, IP, 0.25 h) was 2/4. The “MES N/F (animals active over number tested)” value ([2]; rats, IP, 0.5 h) was 4/4, the “MES N/F (animals active over number tested)” value ([2]; rats, IP, 1.0 h) was 4/4 and the “MES N/F (animals active over number tested)” value ([2]; rats, IP, 2.0 h) was 3/4. For the same compound, the “MES N/F (animals active over number tested)” value ([2]; rats, IP, 4.0 h) was 4/4, the ED50 ([3]; Mus musculus, mice, IP, Table 14, read-out: sCM ED50) was 180 mg/kg and the ED50 ([3]; sc, Mouse, time 0.5 hrs, read-out: ED50 from scM test) was 181 mg/kg. For the same compound, the ED50 ([4]; Rattus norvegicus, rats, IP, Table 15, read-out: sCM ED50) was 96.9 mg/kg, the ED50 ([4]; sc, Rat, time 0.5 hrs, read-out: ED50 from scM test) was 97 mg/kg and the “6 Hz N/F (animals active over number tested)” value ([5]; IP, 32 mA, 0.25 h) was 4/4. The “6 Hz N/F (animals active over number tested)” value ([5]; IP, 32 mA, 0.5 h) was 4/4, the “6 Hz N/F (animals active over number tested)” value ([5]; IP, 32 mA, 1.0 h) was 3/4 and the “6 Hz N/F (animals active over number tested)” value ([5]; IP, 32 mA, 2.0 h) was 2/4. For the same compound, the “6 Hz N/F (animals active over number tested)” value ([5]; IP, 32 mA, 4.0 h) was 0/4, the “6 Hz N/F (animals active over number tested)” value ([5]; IP, 44 mA, 0.25 h) was 2/4 and the “6 Hz N/F (animals active over number tested)” value ([5]; IP, 44 mA, 0.5 h) was 2/4. For the same compound, the “6 Hz N/F (animals active over number tested)” value ([5]; IP, 44 mA, 1.0 h) was 2/4, the “6 Hz N/F (animals active over number tested)” value ([5]; IP, 44 mA, 2.0 h) was 0/4 and the “6 Hz N/F (animals active over number tested)” value ([5]; IP, 44 mA, 4.0 h) was 0/4. It also gave an ED50 ([5]; 32 mA, read-out: ED50 (6 Hz test)) of 67.1 mg/kg, an ED50 ([5]; IP, 32 mA, Table 14, read-out: 6 Hz (32 mA) ED50) of 67.1 mg/kg and an ED50 ([5]; IP, (14 mA) [sic], Table 14, read-out: 6 Hz (14 mA) ED50) of 72.4 mg/kg. For the same compound, the “Avg. Score” value ([6]; 35 mg/kg) was 4.75, the “N/F (animals active over number tested)” value ([6]; 35 mg/kg) was 1/8 and the “Avg. Score” value ([6]; 72 mg/kg) was 3.125. For the same compound, the “N/F (animals active over number tested)” value ([6]; 72 mg/kg) was 5/8, the “Avg. Score” value ([6]; 90 mg/kg) was 2.75 and the “N/F (animals active over number tested)” value ([6]; 90 mg/kg) was 5/8. For the same compound, the “Avg. Score” value ([6]; 120 mg/kg) was 0.375, the “N/F (animals active over number tested)” value ([6]; 120 mg/kg) was 8/8 and the ED50 ([6]; Mus musculus) was 64.1 mg/kg. For the same compound, the TD50 [7] was over 500 mg/kg, the “TOX N/F (animals toxic over number tested)” value (rats; 0.25 h) was 0/4 and the “TOX N/F (animals toxic over number tested)” value (rats; 0.5 h) was 0/4. For the same compound, the “TOX N/F (animals toxic over number tested)” value (rats; 1.0 h) was 0/4, the “TOX N/F (animals toxic over number tested)” value (rats; 2.0 h) was 0/4 and the “TOX N/F (animals toxic over number tested)” value (rats; 4.0 h) was 0/4. For the same compound, the “TOX N/F (animals toxic over number tested)” value (mice; 0.5 h) was 0/4, the “TOX N/F (animals toxic over number tested)” value (mice; 1 h) was 0/4 and the “TOX N/F (animals toxic over number tested)” value (mice; 2 h) was 0/4. The “TOX N/F (animals toxic over number tested)” value (mice; 4 h) was 0/4 and the TD50 (in vivo) was 383 mg/kg.
